Laboratory results: patent US20140255517A1, “MANAGING POST-TRAUMATIC STRESS DISORDER” (EMORY UNIVERSITY, priority 2013, published 2014)
“Also recorded” adds a separate entry of the source.

What was measured:
Assay type in all cases: in vivo, mice
[1] = tested on: animal model of PTSD-like symptoms; assay: Cued Pavlovian fear conditioning, extinction training and extinction retention after acute losartan
Protocol: 24 hr following fear acquisition, losartan (1 mg/kg or 10 mg/kg i.p) was given prior to extinction training (B, E; n=20-25/group). 24 hr following extinction training, and in the absence of drug, mice were tested for extinction retention of learned fear, expressed as total average freezing and in blocks of 5 CS tones (C,D,F,G). To further understand the mechanism by which angiotensin II blockers reduce PTSD symptoms, the effects of the selective AT1R antagonist losartan were examined in an animal model of PTSD-like symptoms. Animals were cue-fear trained using Pavlovian fear conditioning consisting of five pairings of a conditioned stimulus (CS) tone (12 kHz) co-terminating with a shock or unconditioned stimulus (US). […] Twenty-four hours later, the effects of losartan were examined on fear expression (also considered the extinction training session) to the presentation of 15 trials of CS cues in a different context. Groups were given either losartan (1 mg/kg or 10 mg/kg i.p.) or saline 40 minutes prior to fear expression/extinction training. […] Therefore in a separate group of animals, a higher dose of losartan (10 mg/kg i.p.) was examined. […] Twenty-four hours later in the absence of drug, long-term fear memory was assessed (extinction retention).

[2] = Baseline blood pressure measured by radiotelemetry
Protocol: Distance traveled during open-field testing (B) and percent time in open arms of elevated plus maze test of vehicle (C) (n=6-8/group).
In order to determine whether inhibition of the renin-angiotensin system is involved in modulating fear directly or indirectly, both acute and chronic inhibition of the angiotensin type 1 receptor (AT1R) were examined using the AT1R antagonist losartan (1 mg/kg and 10 mg/kg). […] A dose of 10 mg/kg is commonly used in rodents, however the effects on baseline blood pressure are mixed. When given acutely or chronically, some studies show reductions in baseline blood pressure while others show no effect.

[3] = Anxiety-like behavior in elevated plus maze and open field tests
Protocol: Distance traveled during open-field testing (B) and percent time in open arms of elevated plus maze test of vehicle (C) (n=6-8/group). To determine whether losartan affects baseline levels of generalized anxiety, animals were tested in the elevated plus and open field mazes.

[4] = tested on: animal model of PTSD-like symptoms; assay: Cued Pavlovian fear conditioning and extinction after chronic losartan infusion by osmotic mini-pump
Protocol: Extinction training/fear expression was tested and total average freezing within the session (B) and represented in blocks of 5 CS tones (C) 24 hr following fear acquisition.
The chronic effects of AT1 R antagonism on the extinction of fear to were examined. Two-week osmotic mini-pumps were implanted and losartan (10 mg/kg/day) was subcutaneously infused. […] On day 10, animals underwent Pavlovian fear conditioning as described above.

corticosterone = assay: Plasma corticosterone after 30 minutes of restraint stress; settings: losartan for 2 weeks vs vehicle; 30 minutes restraint stress
Protocol: (§1) The hypothalamic pituitary axis (HPA) stress axis could influence the level of learned fear. In order to examine the chronic effects of losartan on the HPA, stress response was examined as well as plasma renin, a measure of endogenous angiotensin II activity. Animals were exposed to 30 minutes of restraint stress and plasma levels of corticosterone and renin measured.

plasma renin = assay: Plasma renin activity after 30 minutes of restraint stress; settings: losartan for 2 weeks vs vehicle; 30 minutes restraint stress
Protocol: as §1
(§2) As an index of central HPA neuronal activation, c-Fos activation was then examined in the paraventricular nucleus (PVN).

c-Fos = c-Fos activation in the paraventricular nucleus after restraint stress; settings: chronic losartan vs vehicle, t(10)=2.3, P<0.05
Description: as §2

AT1R mRNA = assay: Amygdala AT1R mRNA expression after extinction training (RT-qPCR); settings: chronic losartan vs vehicle, following extinction training; t(11)=2.8, P<0.05
[5] = chronic losartan 10 mg/kg/day vs vehicle

CCCCc1nc(Cl)c(CO)n1Cc1ccc(-c2ccccc2-c2nn[nH]n2)cc1 [losartan]
total average freezing during extinction training/fear expression ([1]; losartan 1 mg/kg i.p. 40 minutes prior to extinction training, vs saline): no difference in total average freezing
freezing during extinction retention testing ([1]; losartan 1 mg/kg i.p., tested 24 hours after extinction training in the absence of drug, vs saline): no freezing differences between groups
total average freezing during extinction training/fear expression ([1]; losartan 10 mg/kg i.p. 40 minutes prior to extinction training, vs saline): no differences between groups in total average freezing
total overall freezing during extinction retention ([1]; losartan 10 mg/kg i.p., 24 hours later in the absence of drug, t(48)=2.9, P<0.01): total overall freezing was significantly reduced
freezing to CS presentation during extinction retention testing (repeated-measures 2 way ANOVA, main effect of treatment) ([1]; losartan 10 mg/kg i.p., F1,144=14.6, P<0.001): significantly less freezing to CS presentation
freezing in blocks of five CS tone presentations during extinction retention (Bonferroni post hoc) ([1]; losartan 10 mg/kg i.p., P<0.05): significant reductions in freezing during the first and third blocks
baseline blood pressure ([2]; acute losartan 10 mg/kg i.p. vs saline): no effect on baseline blood pressure
baseline blood pressure [2, 5]: no differences between groups
anxiety-like behavior (distance traveled, time spent in open arms) ([3]; acute losartan 10 mg/kg i.p. 40 minutes prior to test, vs saline): No differences in anxiety-like behavior
generalized anxiety (percent time in center and distance traveled, open field test) [3, 5]: no differences between groups
acquisition of fear (percent freezing) ([4]; losartan 10 mg/kg/day subcutaneous infusion, conditioning on day 10, vs vehicle): no difference in the acquisition of fear; also recorded: acquired fear similarly to control groups
fear expression: total average freezing or blocks of 5 CS trials ([4]; losartan 10 mg/kg/day subcutaneous infusion, 24 hrs after fear acquisition): no significant difference in total average freezing
extinction retention of fear memory over the total average freezing period ([4]; losartan 10 mg/kg/day subcutaneous infusion, t(35)=2.4, P<0.05): enhanced extinction retention of fear memory
freezing to CS presentation during extinction retention testing (repeated-measures ANOVA, main effect of treatment) ([4]; losartan 10 mg/kg/day, F1,108=8.8, P<0.005): significantly less freezing to CS presentation
freezing in blocks of five CS tone presentations during extinction retention (Bonferroni post hoc) ([4]; losartan 10 mg/kg/day, P<0.05): significant reductions in freezing during the second block
plasma corticosterone levels following restraint stress (corticosterone): unaltered by losartan
plasma renin activity following restraint stress (plasma renin): unchanged by losartan
c-Fos activation in the paraventricular nucleus (PVN) (c-Fos): reduced c-Fos activation in the PVN; also recorded: less c-Fos activation in the paraventricular nucleus
amygdala AT1R mRNA expression (AT1R mRNA): significantly reduced amygdala AT1R mRNA expression; also recorded: decreased amygdala AT1 receptor mRNA expression
